# From paper PMC5614982, “Impact of Gastric H^+/K^+-ATPase rs2733743 on the Intragastric pH-Values of Dexlansoprazole Injection in Chinese Subjects” (Frontiers in Pharmacology, 2017)
# Marks after values point to notes of the source that are not given here.
# System: intragastric pH
# Assay: 24-h intragastric pH monitoring after single intravenous dexlansoprazole in healthy Chinese subjects
# Type: in vivo, human
# Conditions: for AUCτ 1−τ 2pH−t: second AUC line
# Protocol: Dexlansoprazole injection (30 mg per vial) used in the PK and PD study was manufactured by Nanjing Yoko Pharma Co., Ltd. (Nanjing, China). Subjects received an intravenous infusion of 20 or 30 mg dexlansoprazole injection in sterile saline solution (100 mL/h, 60 min). The study drug was administrated with an infusing pump (SA213, Lifepum, Beijing, China) and given through an intravenous catheter in the antecubital vein opposite to the one from which blood samples were taken.
# An ambulatory pH recorder (Orion II, MMS, USA) with a disposable pH catheter (VersaFlex, MMS, USA) was used to monitor intragastric pH. The electrode was placed in water for at least 10 min and then calibrated using standard buffer solutions (pH 1.07 and 7.01) before intubation. Both calibration and intubation processes were conducted under the guidance of MMS Virtual Instructor Program. The catheter, trans nasally placed 10 cm under the lower esophageal sphincter, was identified by a sharp decrease in pH (Wang et al., [2010], [2011]). Subjects were intubated on baseline and the day of dosing at about 7:30 a.m., and the intragastric pH data were recorded continuously for 24 h from 8:00 a.m. Intragastric pH was sampled every second, and the data were stored in a MMS Database program (MMS, USA). The PD parameters including Median (pH), Mean (pH), TpH≥3 (%), TpH≥4 (%), TpH≥6 (%), TpH≥6, and AUC^pH−t were analyzed by the MMS Database program.
# Median (pH) and mean (pH) were well-investigated in most studies, and the percentage time of pH ≥ 4 (or pH ≥ 4 holding time ratio) was the benchmark for predicting clinical efficacy of PPIs in treating acid-related diseases (Metz et al., [2009]). Novel parameter TpH≥6 (time to first gastric pH ≥ 6, min) and AUCτ 1-τ 2pH-t (area under pH-time curve from τ1 to τ2, pH·s) were defined to evaluate the velocity and extent of pharmacodynamics with more accuracy. All parameters were calculated and compared according to time periods of 0–24, 0–4, 4–10, 10–14, and 14–24 h post dosing.
# The parameter AUCτ 1-τ 2pH-t was calculated as follows:
# Where t represented the time duration measured by seconds, AUCτ 1-τ 210-t was the area between the pH line = 10 and the pH-time curve, which was generated by the MMS software.
# Baseline-adjusted PD parameters were calculated as follows: for example, ΔAUC^pH−t = AUC^pH−t − AUC^pH−tbaseline, ΔMean (pH) = Mean (pH) − Mean (pH)^baseline, and ΔMedian (pH) = Median (pH) − Median (pH)^baseline.
# [1] = 30 mg iv, H+/K+-ATPase Het (n = 10), 0–4 h
# [2] = 30 mg iv, H+/K+-ATPase Het (n = 10), 0–24 h
# [3] = 30 mg iv, H+/K+-ATPase Het (n = 10), 14–24 h
# [4] = 30 mg iv, H+/K+-ATPase Hom (n = 10), 0–4 h
# [5] = 30 mg iv, H+/K+-ATPase Hom (n = 10), 0–24 h
# [6] = 30 mg iv, H+/K+-ATPase Hom (n = 10), 14–24 h
# [7] = 30 mg iv, H+/K+-ATPase WT (n = 8), 0–4 h
# [8] = 30 mg iv, H+/K+-ATPase WT (n = 8), 0–24 h
# [9] = 30 mg iv, H+/K+-ATPase WT (n = 8), 14–24 h
smiles,measurement,setting,value
Cc1c(OCC(F)(F)F)ccnc1C[S@@+]([O-])c1nc2ccccc2[nH]1 [dexlansoprazole],ΔMedian (pH),[1],3.3 ± 2.0^c pH
same,ΔTpH≥3(%),[1],52.6 ± 22.2%
same,ΔTpH≥4 (%),[1],51.0 ± 20.6%
same,ΔTpH≥6(%),[1],46.0 ± 33.2%
same,Mean (pH),[2],5.9 ± 1.5 pH
same,Median (pH),[2],6.0 ± 1.9 pH
same,TpH≥3(%),[2],81.0 ± 20.9%
same,TpH≥4(%),[2],74.9 ± 25.7%
same,TpH≥6(%),[2],59.2 ± 25.9%
same,ΔMean (pH),[2],3.0 ± 1.0^c pH
same,ΔMedian (pH),[2],4.0 ± 1.6 pH
same,ΔTpH≥3(%),[2],51.8 ± 14.2^c %
same,ΔTpH≥4 (%),[2],54.9 ± 19.1^c %
same,ΔTpH≥6(%),[2],47.2 ± 17.0^c %
same,Mean (pH),[3],5.1 ± 1.9 pH
same,Median (pH),[3],4.9 ± 2.3 pH
same,TpH≥3(%),[3],72.0 ± 33.7%
same,TpH≥4(%),[3],63.2 ± 38.0%
same,TpH≥6(%),[3],41.0 ± 26.2%
same,ΔMean (pH),[3],1.9 ± 0.9^c pH
same,ΔMedian (pH),[3],2.1 ± 1.9^c pH
same,ΔTpH≥3(%),[3],44.1 ± 21.3^c %
same,ΔTpH≥4 (%),[3],37.7 ± 20.5^c %
same,ΔTpH≥6(%),[3],17.4 ± 11.2^c %
same,Mean (pH),[4],6.2 ± 0.8 pH
same,Median (pH),[4],7.5 ± 0.6 pH
same,TpH≥3(%),[4],78.0 ± 7.4%
same,TpH≥4(%),[4],73.1 ± 12.6%
same,TpH≥6(%),[4],70.3 ± 14.7%
same,ΔMean (pH),[4],4.2 ± 0.3^a pH
same,ΔMedian (pH),[4],"5.8 ± 0.3^a^,^b pH"
same,ΔTpH≥3(%),[4],68.4 ± 8.6%
same,ΔTpH≥4 (%),[4],67.5 ± 8.7%
same,ΔTpH≥6(%),[4],67.9 ± 12.4%
same,Mean (pH),[5],7.0 ± 0.6 pH
same,Median (pH),[5],7.5 ± 0.6 pH
same,TpH≥3(%),[5],95.7 ± 1.3%
same,TpH≥4(%),[5],91.7 ± 4.9%
same,TpH≥6(%),[5],80.2 ± 7.5%
same,ΔMean (pH),[5],"4.5 ± 0.7^a^,^b pH"
same,ΔMedian (pH),[5],5.5 ± 0.5^a pH
same,ΔTpH≥3(%),[5],"75.4 ± 7.6^a^,^b %"
same,ΔTpH≥4 (%),[5],79.9 ± 6.6^b %
same,ΔTpH≥6(%),[5],"75.3 ± 9.3^a^,^b %"
same,Mean (pH),[6],6.6 ± 0.8 pH
same,Median (pH),[6],6.7 ± 1.1 pH
same,TpH≥3(%),[6],98.5 ± 1.8%
same,TpH≥4(%),[6],91.0 ± 10.4%
same,TpH≥6(%),[6],66.9 ± 17.6%
same,ΔMean (pH),[6],4.0 ± 1.1^b pH
same,ΔMedian (pH),[6],4.7 ± 1.0^b pH
same,ΔTpH≥3(%),[6],"84.0 ± 9.1^a^,^b %"
same,ΔTpH≥4 (%),[6],"80.9 ± 11.2^a^,^b %"
same,ΔTpH≥6(%),[6],"59.2 ± 21.4^a^,^b %"
same,Mean (pH),[7],5.1 ± 1.4 pH
same,Median (pH),[7],5.6 ± 2.0 pH
same,TpH≥3(%),[7],69.5 ± 24.9%
same,TpH≥4(%),[7],63.3 ± 26.8%
same,TpH≥6(%),[7],46.8 ± 27.3%
same,ΔMean (pH),[7],2.9 ± 1.0^c pH
same,ΔMedian (pH),[7],3.5 ± 1.7^c pH
same,ΔTpH≥3(%),[7],54.0 ± 28.3%
same,ΔTpH≥4 (%),[7],53.6 ± 23.3%
same,ΔTpH≥6(%),[7],42.6 ± 23.6%
same,Mean (pH),[8],5.7 ± 0.9 pH
same,Median (pH),[8],6.0 ± 1.1 pH
same,TpH≥3(%),[8],81.1 ± 14.2%
same,TpH≥4(%),[8],75.6 ± 17.1%
same,TpH≥6(%),[8],57.1 ± 18.8%
same,ΔMean (pH),[8],3.0 ± 1.0^c pH
same,ΔMedian (pH),[8],3.7 ± 1.0^c pH
same,ΔTpH≥3(%),[8],52.6 ± 21.0^c %
same,ΔTpH≥4 (%),[8],57.3 ± 22.3%
same,ΔTpH≥6(%),[8],51.2 ± 17.1^c %
same,Mean (pH),[9],5.1 ± 1.3 pH
same,Median (pH),[9],4.7 ± 1.7 pH
same,TpH≥3(%),[9],70.7 ± 27.8%
same,TpH≥4(%),[9],62.5 ± 31.5%
same,TpH≥6(%),[9],43.7 ± 25.6%
same,ΔMean (pH),[9],2.6 ± 1.3 pH
same,ΔMedian (pH),[9],2.8 ± 1.7 pH
same,ΔTpH≥3(%),[9],56.6 ± 27.3^c %
same,ΔTpH≥4 (%),[9],50.7 ± 30.9^c %
same,ΔTpH≥6(%),[9],33.3 ± 25.5^c %
same,AUCτ 1−τ 2pH−t,"20 mg iv, 0–4 h",501 ± 268 pH·h
same,AUCτ 1−τ 2pH−t,"20 mg iv, 10–14 h",784 ± 346 pH·h
same,AUCτ 1−τ 2pH−t,"20 mg iv, 14–24 h",942 ± 632 pH·h
same,AUCτ 1−τ 2pH−t,"30 mg iv, 0–4 h",793 ± 268 pH·h
same,AUCτ 1−τ 2pH−t,"30 mg iv, CYP2C19 EM (n = 11), 0–4 h",762 ± 250 pH·h
same,AUCτ 1−τ 2pH−t,"30 mg iv, CYP2C19 EMs, H+/K+-ATPase Het (n = 8), 0–4 h",531 ± 194^c pH·h
same,AUCτ 1−τ 2pH−t,"30 mg iv, CYP2C19 EMs, H+/K+-ATPase Het (n = 8), 14–24 h",755 ± 198^c pH·h
same,AUCτ 1−τ 2pH−t,"30 mg iv, CYP2C19 EMs, H+/K+-ATPase WT (n = 6), 0–4 h",817 ± 157 pH·h
same,AUCτ 1−τ 2pH−t,"30 mg iv, CYP2C19 EMs, H+/K+-ATPase WT (n = 6), 14–24 h",968 ± 553^c pH·h
same,AUCτ 1−τ 2pH−t,"30 mg iv, CYP2C19 IM (n = 10), 0–4 h",789 ± 405 pH·h
same,AUCτ 1−τ 2pH−t,"30 mg iv, CYP2C19 PM (n = 7), 0–4 h",837 ± 235 pH·h
same,AUCτ 1−τ 2pH−t,[1],727 ± 297 pH·h
same,AUCτ 1−τ 2pH−t,[7],681 ± 248^c pH·h
